Test: xn = mol fraction of the nth substance listed
Settings: Liquid; for viscosity: Capillary tube (Ostwald / Ubbelohde) method; for mass density: isochoric method

CCCCCCCC [octane] + CCCCCCC
Settings	mass density [kg/m3]	viscosity [mPa·s]
373.19 K, 5000 kPa, x2 = 0.7906	–	0.217
373.19 K, 10000 kPa, x2 = 0.7906	–	0.23
373.51 K, 5000 kPa, x2 = 0.2808	–	0.241
373.51 K, 10000 kPa, x2 = 0.2808	–	0.255
373.97 K, 5000 kPa, x2 = 0.5427	–	0.227
373.97 K, 10000 kPa, x2 = 0.5427	–	0.24
374.79 K, 3256 kPa, x2 = 0.2808	634.7	–
374.79 K, 8081 kPa, x2 = 0.2808	641.5	–
374.79 K, 9316 kPa, x2 = 0.2808	643.1	–
380.43 K, 3110 kPa, x2 = 0.5427	623.5	–
380.43 K, 5712 kPa, x2 = 0.5427	628.4	–
380.43 K, 8743 kPa, x2 = 0.5427	633.1	–
380.43 K, 10230 kPa, x2 = 0.5427	635.1	–
382.99 K, 5000 kPa, x2 = 0.2808	–	0.223
382.99 K, 10000 kPa, x2 = 0.2808	–	0.237
383.18 K, 5000 kPa, x2 = 0.5427	–	0.212
383.18 K, 10000 kPa, x2 = 0.5427	–	0.224
384.55 K, 5000 kPa, x2 = 0.7906	–	0.198
384.55 K, 10000 kPa, x2 = 0.7906	–	0.211
386.91 K, 3743 kPa, x2 = 0.7906	612.4	–
386.91 K, 5902 kPa, x2 = 0.7906	616.6	–
386.91 K, 8793 kPa, x2 = 0.7906	621.6	–
386.91 K, 10710 kPa, x2 = 0.7906	624.7	–
393.49 K, 5000 kPa, x2 = 0.2808	–	0.206
393.49 K, 10000 kPa, x2 = 0.2808	–	0.22
394.51 K, 5000 kPa, x2 = 0.5427	–	0.195
394.51 K, 10000 kPa, x2 = 0.5427	–	0.206
395.52 K, 5000 kPa, x2 = 0.7906	–	0.183
395.52 K, 10000 kPa, x2 = 0.7906	–	0.195
401.28 K, 4100 kPa, x2 = 0.7906	601.1	–
401.28 K, 6833 kPa, x2 = 0.7906	606.2	–
401.28 K, 9204 kPa, x2 = 0.7906	610.3	–
401.28 K, 10510 kPa, x2 = 0.7906	612.5	–
401.4 K, 4751 kPa, x2 = 0.2808	614.2	–
401.4 K, 7120 kPa, x2 = 0.2808	618	–
401.4 K, 9310 kPa, x2 = 0.2808	621.7	–
403.23 K, 5000 kPa, x2 = 0.5427	–	0.183
403.23 K, 10000 kPa, x2 = 0.5427	–	0.193
407.72 K, 5000 kPa, x2 = 0.7906	–	0.167
407.72 K, 10000 kPa, x2 = 0.7906	–	0.18
409.59 K, 3334 kPa, x2 = 0.5427	598	–
409.59 K, 7257 kPa, x2 = 0.5427	606.1	–
409.59 K, 9316 kPa, x2 = 0.5427	609.6	–
413.6 K, 5000 kPa, x2 = 0.2808	–	0.178
413.6 K, 10000 kPa, x2 = 0.2808	–	0.191
415.96 K, 5000 kPa, x2 = 0.5427	–	0.167
415.96 K, 10000 kPa, x2 = 0.5427	–	0.177
423.23 K, 3334 kPa, x2 = 0.7906	578.1	–
423.23 K, 7433 kPa, x2 = 0.7906	587.6	–
423.23 K, 9708 kPa, x2 = 0.7906	592.4	–
424.45 K, 5000 kPa, x2 = 0.7906	–	0.149
424.45 K, 10000 kPa, x2 = 0.7906	–	0.16
424.48 K, 4903 kPa, x2 = 0.5427	588.7	–
424.48 K, 7108 kPa, x2 = 0.5427	592.8	–
424.48 K, 9298 kPa, x2 = 0.5427	597.1	–
424.55 K, 5000 kPa, x2 = 0.5427	–	0.158
424.55 K, 10000 kPa, x2 = 0.5427	–	0.167
429.34 K, 3511 kPa, x2 = 0.2808	585.6	–
429.34 K, 8237 kPa, x2 = 0.2808	595.9	–
429.34 K, 9630 kPa, x2 = 0.2808	598.7	–
432.62 K, 5000 kPa, x2 = 0.2808	–	0.156
432.62 K, 10000 kPa, x2 = 0.2808	–	0.168
433.62 K, 5000 kPa, x2 = 0.5427	–	0.148
433.62 K, 10000 kPa, x2 = 0.5427	–	0.158
435.62 K, 5000 kPa, x2 = 0.7906	–	0.138
435.62 K, 10000 kPa, x2 = 0.7906	–	0.149
447.3 K, 4808 kPa, x2 = 0.5427	566	–
447.3 K, 6304 kPa, x2 = 0.5427	569.6	–
447.3 K, 9463 kPa, x2 = 0.5427	576.6	–
451.28 K, 3900 kPa, x2 = 0.2808	565.6	–
451.28 K, 5302 kPa, x2 = 0.2808	569	–
451.28 K, 8131 kPa, x2 = 0.2808	576	–
451.28 K, 9621 kPa, x2 = 0.2808	579.7	–
452.73 K, 5000 kPa, x2 = 0.5427	–	0.129
452.73 K, 10000 kPa, x2 = 0.5427	–	0.14
455.3 K, 5000 kPa, x2 = 0.7906	–	0.12
455.3 K, 10000 kPa, x2 = 0.7906	–	0.132
455.63 K, 5000 kPa, x2 = 0.2808	–	0.133
455.63 K, 10000 kPa, x2 = 0.2808	–	0.145
463.18 K, 5000 kPa, x2 = 0.5427	–	0.12
463.18 K, 10000 kPa, x2 = 0.5427	–	0.131
466.55 K, 4570 kPa, x2 = 0.7906	535.1	–
466.55 K, 7593 kPa, x2 = 0.7906	546.3	–
466.55 K, 9885 kPa, x2 = 0.7906	553.4	–
466.78 K, 3177 kPa, x2 = 0.5427	538.3	–
466.78 K, 8649 kPa, x2 = 0.5427	556.8	–
466.78 K, 9963 kPa, x2 = 0.5427	560.6	–
472.52 K, 5000 kPa, x2 = 0.7906	–	0.107
472.52 K, 10000 kPa, x2 = 0.7906	–	0.118
473.1 K, 5000 kPa, x2 = 0.5427	–	0.112
473.1 K, 10000 kPa, x2 = 0.5427	–	0.123
473.46 K, 5000 kPa, x2 = 0.2808	–	0.118
473.46 K, 10000 kPa, x2 = 0.2808	–	0.13
475.85 K, 4354 kPa, x2 = 0.2808	539.5	–
475.85 K, 8492 kPa, x2 = 0.2808	553.8	–
475.85 K, 10120 kPa, x2 = 0.2808	558.1	–
483.92 K, 4703 kPa, x2 = 0.5427	524.2	–
483.92 K, 7131 kPa, x2 = 0.5427	533.5	–
483.92 K, 9423 kPa, x2 = 0.5427	541.6	–
494.74 K, 4250 kPa, x2 = 0.2808	515.8	–
494.74 K, 6032 kPa, x2 = 0.2808	524.3	–
494.74 K, 8734 kPa, x2 = 0.2808	535.5	–
494.74 K, 9220 kPa, x2 = 0.2808	537.5	–
505.34 K, 5217 kPa, x2 = 0.2808	507.7	–
505.34 K, 8904 kPa, x2 = 0.2808	525.4	–
505.34 K, 9807 kPa, x2 = 0.2808	528.4	–
506 K, 5099 kPa, x2 = 0.7906	487.7	–
506 K, 6982 kPa, x2 = 0.7906	499.4	–
506 K, 8492 kPa, x2 = 0.7906	507.2	–
506 K, 9669 kPa, x2 = 0.7906	512.6	–
518.04 K, 4982 kPa, x2 = 0.5427	480.1	–
518.04 K, 7512 kPa, x2 = 0.5427	496.2	–
518.04 K, 8983 kPa, x2 = 0.5427	504.3	–
525.5 K, 4771 kPa, x2 = 0.2808	475.8	–
525.5 K, 5323 kPa, x2 = 0.2808	480.4	–
525.5 K, 7331 kPa, x2 = 0.2808	494.9	–
525.5 K, 9533 kPa, x2 = 0.2808	506.5	–
536.57 K, 5021 kPa, x2 = 0.5427	449.5	–
536.57 K, 6931 kPa, x2 = 0.5427	468.1	–
536.57 K, 9621 kPa, x2 = 0.5427	486.1	–
549.34 K, 5394 kPa, x2 = 0.5427	431.7	–
549.34 K, 6766 kPa, x2 = 0.5427	449.2	–
549.34 K, 8689 kPa, x2 = 0.5427	464.6	–
549.34 K, 9708 kPa, x2 = 0.5427	471.9	–
555.9 K, 4982 kPa, x2 = 0.7906	394.1	–
555.9 K, 6198 kPa, x2 = 0.7906	416.1	–
555.9 K, 8649 kPa, x2 = 0.7906	445.5	–
555.9 K, 10240 kPa, x2 = 0.7906	458.1	–
557.23 K, 5296 kPa, x2 = 0.2808	430.4	–
557.23 K, 8238 kPa, x2 = 0.2808	461.5	–
557.23 K, 9885 kPa, x2 = 0.2808	473.3	–
557.23 K, 10790 kPa, x2 = 0.2808	479	–
